From PubChem BioAssay (NCI)
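Cells were grown in 96-well plates and exposed to each compound for 48 hours at five concentrations; endpoints were interpolated linearly between bracketing concentrations, or set to the highest concentration if not reached. Definition used: TGI = concentration required for complete inhibition of growth.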

Experiments:
Assay in all cases: DTP human tumour cell line panel, 48 h
[1] = tested on: NCI-H23 lung
[2] = tested on: LOX IMVI melanoma
[3] = tested on: CAKI-1 renal
[4] = tested on: UO-31 renal
[5] = tested on: OVCAR-4 ovarian
[6] = tested on: MCF7 breast
[7] = tested on: SF-295 CNS
[8] = tested on: A549 NSCLC
[9] = tested on: CCRF-CEM leukemia
[10] = tested on: HCC-2998 colon
[11] = tested on: SNB-19 CNS
[12] = tested on: 786-0 renal
[13] = tested on: NCI-H522 lung
[14] = tested on: DU-145 prostate

SMILES | TGI [1] | TGI [2] | TGI [3] | TGI [4] | TGI [5] | TGI [6] | TGI [7] | TGI [8] | TGI [9] | TGI [10] | TGI [11] | TGI [12] | TGI [13] | TGI [14]
Cc1ccc(NC(=O)c2cc(S(=O)(=O)Nc3n[nH]c(=O)[nH]3)c(SSc3cc(Cl)c(C(=O)Nc4ccc(C)cc4)cc3S(=O)(=O)Nc3n[nH]c(=O)[nH]3)cc2Cl)cc1 | > 100 µM | > 100 µM | > 100 µM | > 100 µM | > 100 µM | > 100 µM | > 100 µM | > 100 µM | > 100 µM | > 100 µM | > 100 µM | > 100 µM | > 100 µM | 
CCOP1(=O)C=C(C)C(Cl)=C(C)C1 (centres undefined) | 46.2 µM | 50.4 µM |  | > 100 µM | 90.9 µM |  | > 100 µM | 65 µM | 59.2 µM | > 100 µM | > 100 µM | 83 µM | 27.8 µM | 
CC12CCC(=O)N1c1ccc([N+](=O)[O-])cc1N2 (centres undefined) | > 100 µM | > 100 µM |  | > 100 µM | > 100 µM |  | > 100 µM | > 100 µM | > 100 µM |  | > 100 µM | > 100 µM | > 100 µM | 
CC1(C)CC(=O)C(/C(=N/NC(=S)NN)C(=O)Nc2nc3ccc([N+](=O)[O-])cc3s2)C(=O)C1 | > 100 µM | > 100 µM | > 100 µM | > 100 µM | > 100 µM |  | > 100 µM | > 100 µM | > 100 µM | > 100 µM | > 100 µM | > 100 µM | > 100 µM | 
C/C(=C\CBr)CCC(Br)C(C)(C)Cl (centres undefined) | > 100 µM | > 100 µM | > 100 µM | > 100 µM | > 100 µM |  | > 100 µM | > 100 µM |  |  |  | > 100 µM | > 100 µM | 
O=C1C(Cl)C2(CC(/C=C/c3ccccc3)=NN2c2cccc(S(=O)(=O)O)c2)N1c1nc2ccccc2s1 (centres undefined) | 28.1 µM | 13 µM | 22.6 µM | 16.1 µM | 31.9 µM | 36.6 µM |  | 30.2 µM | 32.4 µM | 27.8 µM | > 100 µM | 31 µM | 20.1 µM | 
COC(=O)c1ccc(S)c(S(=O)(=O)Nc2n[nH]c(N)n2)c1 | > 100 µM | > 100 µM | > 100 µM | > 100 µM | > 100 µM |  | > 100 µM | > 100 µM | > 100 µM |  | > 100 µM | > 100 µM | > 100 µM | > 100 µM
CN(C)C(=NCc1ccccc1)NC#N | > 100 µM | > 100 µM | > 100 µM | > 100 µM | > 100 µM |  | > 100 µM | > 100 µM |  | > 100 µM | > 100 µM | > 100 µM | > 100 µM | 
O=C(NC1CCN(Cc2ccccc2)CC1)c1ccc(I)cc1 | > 100 µM | > 100 µM | > 100 µM | > 100 µM | > 100 µM |  | > 100 µM | > 100 µM | > 100 µM |  | > 100 µM | > 100 µM | > 100 µM | > 100 µM
C/C=C/C#CC#C/C=C/C=C/C(O)CCO (centres undefined) | > 23.1 µM | > 23.1 µM | > 23.1 µM | > 23.1 µM | > 23.1 µM |  | > 23.1 µM | > 23.1 µM | > 23.1 µM | > 23.1 µM | > 23.1 µM | > 23.1 µM | > 23.1 µM | 
O=C(CCC1C(=O)NC(=S)NC1=O)c1ccc2ccccc2c1 | > 100 µM | > 100 µM | > 100 µM | > 100 µM | > 100 µM |  | > 100 µM | > 100 µM | > 100 µM | > 100 µM | > 100 µM | > 100 µM | 31.1 µM | 
COC(=O)[C@@]1(C(C)CC(=O)O)CCCCC1=O (some centres undefined) | > 100 µM | > 100 µM | > 100 µM | > 100 µM | > 100 µM |  | > 100 µM | > 100 µM | > 100 µM | > 100 µM | > 100 µM | > 100 µM | > 100 µM | 
[O-]c1c2cc(-[n+]3c(-c4ccccc4)cc(-c4ccccc4)cc3-c3ccccc3)cc1COCCOCCOCCOCCOC2 | > 100 µM | > 100 µM | > 100 µM | > 100 µM | > 100 µM |  | > 100 µM | > 100 µM | > 100 µM | > 100 µM | > 100 µM | > 100 µM | > 100 µM | 
O=[N+]([O-])c1cccc2nc3ccccc3c(NCCCNc3c4ccccc4nc4cccc([N+](=O)[O-])c34)c12 | 0.248 µM | > 100 µM | 0.118 µM | 0.143 µM | 0.302 µM |  | 1.5 µM | 0.166 µM | 0.162 µM | 0.0223 µM | 0.163 µM | < 0.01 µM | 0.121 µM | 
CCN(CC)c1ccc2c(c1)Oc1ccc(N(CC)CC)cc1C21Oc2ccccc2-c2c1c1ccccc1n2CC (centres undefined) | 8.01 µM | > 100 µM | > 100 µM | 63.2 µM | > 100 µM |  | > 100 µM | > 100 µM | > 100 µM | > 100 µM | > 100 µM | > 100 µM | 5.06 µM | 
